The text below walks through data of patent publication US20100056524A1, “Compound” (priority 2008, published 2010).

Counter-ions that a name gives are not always drawn. Like-named read-outs stand apart in the source and are kept apart here.

Assay [1] concerns the target T1, PAK5 (Homo sapiens, UniProt Q9P286).
T1 construct: All protein kinases were of human origin and encoded full length proteins, unless indicated otherwise; made in house
The assay can be described thus: PAK5 protein kinase assay. It counts as biochemical. The following applies: for remaining activity at 10 µM: 10 μM compound; for residual kinase activity PAK5: 1 μm compound; for remaining activity at 1 µM: 1 μM compound. From the text: (§1) All protein kinases were of human origin and encoded full length proteins, unless indicated otherwise. They were either expressed as glutathione S-transferase (GST) fusion proteins in Escherichia Coli or as hexahistidine (His6)-tagged proteins in insect Sf21 cells. GST fusion proteins were purified by affinity chromatography on glutathione-Sepharose, and His6-tagged proteins on nickel/nitriloacetate-agarose. The procedures for expressing some of the protein kinases used herein have been detailed previously.^8,9 The following sections outline the DNA vectors synthesised and the procedures used to express and purifying protein kinases that have not been reported previously.
(§2) All assays (25.5 μl) were carried out at room temperature (21° C.) and were linear with respect to time and enzyme concentration under the conditions used. Assays were performed for 30 min using Multidrop Micro reagent dispensers (Thermo Electron Corporation, Waltham, Mass. 02454, USA) in a 96-well format. The concentration of magnesium acetate in the assays was 10 mM and the [γ-33P] ATP (800 cpm/pmol) was used at 5, 20 or 50 μM as indicated, in order to be at or below the Km for ATP for each enzyme. Protein kinases assayed at 5 μM ATP were: —ERK1, ERK8, PKBα, MARK3, Aurora C. Protein kinases assayed at 20 μM ATP were: —JNK1, PDK1, CHK1, CHK2, CDK2 and Aurora B. Protein kinases assayed at 50 μM ATP were: —MNK2, IKKepsilon and TBK1.
(§3) The assays were initiated with MgATP, stopped by addition of 5 μl of 0.5 M orthophosphoric acid and spotted on to P81 filterplates using a unifilter harvester (PerkinElmer, Boston, Mass. 02118, USA). The IC50 values of inhibitors were determined after carrying out assays at 10 different concentrations of each compound.
(§4) Unless stated otherwise, enzymes were diluted in 50 mM Tris/HCl pH 7.5, 0.1 mM EGTA, 1 mg/ml BSA, 0.1% (v/v) 2-mercaptoethanol and assayed in 50 mM Tris/HCl pH 7.5, 0.1 mM EGTA, 0.1% (v/v) 2-mercaptoethanol.

Assay [2] has as its target T2, CAMKKb (Homo sapiens, UniProt Q96RR4).
T2 construct: All protein kinases were of human origin and encoded full length proteins, unless indicated otherwise; made in house
Description: CAMKKb protein kinase assay. It counts as biochemical. The following applies: for remaining activity at 10 µM: 10 μM compound; for residual kinase activity CAMKKb: 1 μm compound; for remaining activity at 1 µM: 1 μM compound.
Text: as §1, §2, §3, §4

Assay [3] concerns the target T3, Lck (Homo sapiens, UniProt P06239).
T3 construct: All protein kinases were of human origin and encoded full length proteins, unless indicated otherwise; made in house
Description: Lck protein kinase assay. The assay is classed as biochemical. The following applies: for remaining activity at 10 µM: 10 μM compound; for residual kinase activity Lck: 1 μm compound; for remaining activity at 1 µM: 1 μM compound.
Text: as §1, §2, §3, §4

Assay [4] relates to CK1. Description: CK1 protein kinase assay. It counts as biochemical, human. The following applies: for residual kinase activity: CK1.
Text: as §1, §2, §3, §4

The target of assay [5] is T4, YES1 (Homo sapiens, UniProt P07947).
T4 construct: All protein kinases were of human origin and encoded full length proteins, unless indicated otherwise; made in house
The assay can be described thus: YES1 protein kinase assay. It counts as biochemical. Conditions: for remaining activity at 10 µM: 10 μM compound; for residual kinase activity YES1: 1 μm compound; for remaining activity at 1 µM: 1 μM compound.
Text: as §1, §2, §3, §4

Assay [6] addresses T5, PDK1 (Homo sapiens, UniProt O15530).
T5 construct: 3-phosphoinositide-dependent protein kinase-1 [52-556]; His6; made in house; host or cells: insect Sf21 cells
T5 sequence (O15530 52-556): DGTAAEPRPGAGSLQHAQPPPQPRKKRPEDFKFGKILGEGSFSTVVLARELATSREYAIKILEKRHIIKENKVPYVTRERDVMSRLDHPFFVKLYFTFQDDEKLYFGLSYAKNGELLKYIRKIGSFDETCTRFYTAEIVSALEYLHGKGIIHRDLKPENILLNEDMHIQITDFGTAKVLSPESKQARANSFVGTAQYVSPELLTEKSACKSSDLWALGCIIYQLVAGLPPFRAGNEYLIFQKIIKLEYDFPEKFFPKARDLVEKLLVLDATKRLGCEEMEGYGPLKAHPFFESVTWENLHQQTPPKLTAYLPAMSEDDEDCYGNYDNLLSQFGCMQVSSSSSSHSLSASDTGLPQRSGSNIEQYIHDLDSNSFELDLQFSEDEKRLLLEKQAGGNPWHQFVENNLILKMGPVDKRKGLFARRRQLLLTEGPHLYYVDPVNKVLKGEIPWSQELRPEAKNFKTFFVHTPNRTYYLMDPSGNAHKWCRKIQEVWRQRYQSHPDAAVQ
The assay can be described thus: PDK1 protein kinase assay. Conditions: for remaining activity at 10 µM: 10 μM compound; for residual kinase activity PDK1: 1 μm compound; for remaining activity at 1 µM: 1 μM compound. It counts as biochemical.
Text: as §1
The following kinases were expressed in Sf21 cells: Aurora B and Aurora C, extra-cellular signal-regulated kinase 8 (ERK8), microtubule affinity regulating kinase 3 (MARK3), protein kinase Bα[118-480][S473D], protein kinase Bβ (PKBβ[120-481][S474D], 3-phosphoinositide-dependent protein kinase-1 [52-556]
as §2, §3, §4

The target of assay [7] is T6, ERK2 (Homo sapiens, UniProt P28482).
T6 construct: All protein kinases were of human origin and encoded full length proteins, unless indicated otherwise; made in house
The assay can be described thus: ERK2 protein kinase assay. It counts as biochemical. Conditions: for remaining activity at 10 µM: 10 μM compound; for residual kinase activity ERK2: 1 μm compound; for remaining activity at 1 µM: 1 μM compound.
Text: as §1, §2, §3, §4

Assay [8] has as its target T7, p38a MAPK (Homo sapiens, UniProt Q16539).
T7 construct: All protein kinases were of human origin and encoded full length proteins, unless indicated otherwise; made in house
Description: p38a MAPK protein kinase assay. It counts as biochemical. The following applies: for remaining activity at 10 µM: 10 μM compound; for residual kinase activity p38a MAPK: 1 μm compound; for remaining activity at 1 µM: 1 μM compound.
Text: as §1, §2, §3, §4

The mark [9] stands for this setting: read-out: residual kinase activity PAK5.
The mark [10] stands for this setting: read-out: residual kinase activity CAMKKb.
[11] abbreviates: read-out: residual kinase activity Lck.
Where [12] appears, read: read-out: residual kinase activity YES1.
Where [13] appears, read: read-out: residual kinase activity PDK1.
Setting [14] is: read-out: residual kinase activity ERK2.
Where [15] appears, read: read-out: residual kinase activity p38a MAPK.
Where [16] appears, read: PAK5, read-out: residual kinase activity.
[17] abbreviates: CAMKKb, read-out: residual kinase activity.
[18] abbreviates: Lck, read-out: residual kinase activity.
Where [19] appears, read: YES1, read-out: residual kinase activity.
Setting [20] is: PDK1, 20 μM ATP, read-out: residual kinase activity.
The mark [21] stands for this setting: ERK2, read-out: residual kinase activity.
[22] abbreviates: p38a MAPK, read-out: residual kinase activity.

T2 sequence (Q96RR4 whole entry): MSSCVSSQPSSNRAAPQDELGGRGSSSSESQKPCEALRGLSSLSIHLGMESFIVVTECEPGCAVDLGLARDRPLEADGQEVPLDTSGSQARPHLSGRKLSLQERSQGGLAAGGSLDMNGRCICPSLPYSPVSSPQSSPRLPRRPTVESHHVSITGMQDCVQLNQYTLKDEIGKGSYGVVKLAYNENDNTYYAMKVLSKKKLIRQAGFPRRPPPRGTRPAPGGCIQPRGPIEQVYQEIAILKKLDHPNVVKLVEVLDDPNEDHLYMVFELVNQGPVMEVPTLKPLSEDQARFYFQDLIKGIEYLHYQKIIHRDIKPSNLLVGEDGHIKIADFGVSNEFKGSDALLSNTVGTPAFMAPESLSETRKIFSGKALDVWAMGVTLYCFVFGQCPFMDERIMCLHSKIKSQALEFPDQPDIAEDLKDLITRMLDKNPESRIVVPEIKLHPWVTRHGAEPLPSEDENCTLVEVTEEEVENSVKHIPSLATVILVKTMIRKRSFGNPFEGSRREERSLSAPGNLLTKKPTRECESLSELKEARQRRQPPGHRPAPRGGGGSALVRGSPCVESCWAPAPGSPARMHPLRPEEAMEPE
T3 sequence (P06239 whole entry): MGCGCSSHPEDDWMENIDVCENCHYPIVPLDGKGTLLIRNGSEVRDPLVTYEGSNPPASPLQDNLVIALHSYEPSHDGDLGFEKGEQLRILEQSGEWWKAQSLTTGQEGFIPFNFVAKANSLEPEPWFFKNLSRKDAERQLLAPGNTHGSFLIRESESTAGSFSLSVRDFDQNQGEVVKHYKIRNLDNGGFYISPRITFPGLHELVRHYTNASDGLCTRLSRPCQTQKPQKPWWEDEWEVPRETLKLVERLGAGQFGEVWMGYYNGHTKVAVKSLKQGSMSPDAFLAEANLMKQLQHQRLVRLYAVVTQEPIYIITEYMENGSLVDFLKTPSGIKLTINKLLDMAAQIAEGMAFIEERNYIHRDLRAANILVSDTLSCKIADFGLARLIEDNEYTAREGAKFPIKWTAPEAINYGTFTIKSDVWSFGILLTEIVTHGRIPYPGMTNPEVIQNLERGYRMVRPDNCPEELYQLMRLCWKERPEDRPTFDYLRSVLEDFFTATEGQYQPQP
T7 sequence (Q16539 whole entry): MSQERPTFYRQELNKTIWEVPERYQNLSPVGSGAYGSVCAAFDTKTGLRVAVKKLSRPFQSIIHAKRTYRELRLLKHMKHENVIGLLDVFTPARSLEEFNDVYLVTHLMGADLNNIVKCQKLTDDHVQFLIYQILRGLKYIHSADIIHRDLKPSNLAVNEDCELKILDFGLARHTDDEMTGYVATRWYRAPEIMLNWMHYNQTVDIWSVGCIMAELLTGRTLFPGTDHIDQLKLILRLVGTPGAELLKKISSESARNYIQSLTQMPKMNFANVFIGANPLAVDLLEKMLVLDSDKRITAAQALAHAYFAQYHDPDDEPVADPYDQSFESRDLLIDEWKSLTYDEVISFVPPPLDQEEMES
T6 sequence (P28482 2-360): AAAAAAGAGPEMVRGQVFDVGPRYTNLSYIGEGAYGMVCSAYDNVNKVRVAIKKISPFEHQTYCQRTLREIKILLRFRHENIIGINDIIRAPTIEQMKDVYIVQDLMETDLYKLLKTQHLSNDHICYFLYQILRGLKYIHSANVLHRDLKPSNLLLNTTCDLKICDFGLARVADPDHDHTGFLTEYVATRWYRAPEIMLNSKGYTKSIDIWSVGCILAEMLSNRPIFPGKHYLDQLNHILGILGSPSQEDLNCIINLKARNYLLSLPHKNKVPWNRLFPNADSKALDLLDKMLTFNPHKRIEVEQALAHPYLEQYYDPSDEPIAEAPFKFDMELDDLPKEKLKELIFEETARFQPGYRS
T1 sequence (Q9P286 425-719 limits assumed): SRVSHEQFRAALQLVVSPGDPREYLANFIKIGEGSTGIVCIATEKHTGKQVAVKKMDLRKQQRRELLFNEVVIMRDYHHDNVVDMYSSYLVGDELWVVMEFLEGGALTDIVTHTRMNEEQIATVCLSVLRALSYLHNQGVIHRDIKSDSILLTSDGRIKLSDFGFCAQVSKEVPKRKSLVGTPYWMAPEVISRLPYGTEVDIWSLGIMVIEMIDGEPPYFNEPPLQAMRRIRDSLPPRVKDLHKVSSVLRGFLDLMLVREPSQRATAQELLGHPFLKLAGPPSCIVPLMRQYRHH
T4 sequence (P07947 whole entry): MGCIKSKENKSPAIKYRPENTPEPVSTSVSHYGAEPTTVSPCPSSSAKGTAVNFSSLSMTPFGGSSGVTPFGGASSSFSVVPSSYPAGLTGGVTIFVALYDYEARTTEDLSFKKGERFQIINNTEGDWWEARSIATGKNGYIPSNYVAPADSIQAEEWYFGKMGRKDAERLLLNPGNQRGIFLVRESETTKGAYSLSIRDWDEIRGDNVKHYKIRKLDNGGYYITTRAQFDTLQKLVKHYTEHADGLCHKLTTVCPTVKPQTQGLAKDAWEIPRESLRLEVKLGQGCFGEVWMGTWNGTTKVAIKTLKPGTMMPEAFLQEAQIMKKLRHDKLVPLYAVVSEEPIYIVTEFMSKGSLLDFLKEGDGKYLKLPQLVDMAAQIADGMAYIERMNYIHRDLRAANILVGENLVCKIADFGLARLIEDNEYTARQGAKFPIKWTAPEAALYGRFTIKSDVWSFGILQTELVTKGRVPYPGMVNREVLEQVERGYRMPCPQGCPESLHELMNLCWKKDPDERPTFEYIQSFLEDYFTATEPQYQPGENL

Take `O=C(NCCCNc1nc(Nc2cccc(F)c2)ncc1Br)C1CCC1` [Compound A, cyclobutanecarboxylic acid {3-[5-bromo-2-(3-fluoro-phenylamino)-pyrimidin-4-ylamino]-propyl}-amide, reference compound]: the remaining activity at 10 µM was found to be 14% in assay [1] (setting [9]); 22% in assay [2] (setting [10]); 10% in assay [3] (setting [11]); 8% in assay [5] (setting [12]); 1% in assay [6] (setting [13]); 10% in assay [7] (setting [14]). Also, the remaining activity at 10 µM in assay [8] (setting [15]) was 78%. The “residual kinase activity PAK5” value in assay [1] came out at 46%. For the same molecule, the “residual kinase activity CAMKKb” value in assay [2] worked out at 27%. Further, the “residual kinase activity Lck” value in assay [3] amounted to 57%. Besides, the figures for the “residual kinase activity CK1” value in assay [4] (10 μM compound) and in assay [4] (1 μm compound) were 50% and 91%, respectively. The “residual kinase activity YES1” value in assay [5] turned out to be 36%. Also, the “residual kinase activity PDK1” value in assay [6] is on record as 6%. Moreover, the “residual kinase activity ERK2” value in assay [7] is recorded as 49%. Further, the “residual kinase activity p38a MAPK” value in assay [8] is recorded as 99%.

Take `O=C(NCCCNc1nc(Nc2cccc(F)c2)ncc1C1CC1)C1CCC1` [Example 23, Cyclobutanecarboxylic acid {3-[5-cyclopropyl-2-(3-fluoro-phenylamino)-pyrimidin-4-ylamino]-propyl}-amide]: the remaining activity at 10 µM in assay [1] (setting [9]) worked out at 56%; in assay [1] (setting [16]), 56%; in assay [2] (setting [10]), 8%; in assay [2] (setting [17]) it was 8%; in assay [3] (setting [11]) it was 37%; in assay [3] (setting [18]), 37%. In addition, the remaining activity at 10 µM in assay [5] (setting [12]) came to 22%; in assay [5] (setting [19]), 22%; in assay [6] (setting [13]) it was 10%; in assay [6] (setting [20]), 10%; in assay [7] (setting [14]), 108%; in assay [7] (setting [21]) it was 108%. Further, the remaining activity at 10 µM in assay [8] (setting [15]) and in assay [8] (setting [22]) was 86% each time. In addition, the “residual kinase activity PAK5” value in assay [1] is given as 74%. In addition, the remaining activity at 1 µM is 74% in assay [1] (setting [16]); 43% in assay [2] (setting [17]); 86% in assay [3] (setting [18]); 77% in assay [5] (setting [19]); 44% in assay [6] (setting [20]); 107% in assay [7] (setting [21]). In addition, in assay [8] (setting [22]), the remaining activity at 1 µM was found to be 72%. Also, in assay [2], the “residual kinase activity CAMKKb” value amounted to 43%. Besides, the “residual kinase activity Lck” value in assay [3] worked out at 86%. For the same molecule, the entries for the “residual kinase activity CK1” value in assay [4] (10 μM compound) and in assay [4] (1 μm compound) were 64% and 93%, respectively. Besides, the residual kinase activity came to 93% in assay [4] (1 μM compound) and 64% in assay [4] (10 μM compound). Also, the “residual kinase activity YES1” value in assay [5] came to 77%. Further, the “residual kinase activity PDK1” value in assay [6] turned out to be 44%. The “residual kinase activity ERK2” value in assay [7] came to 107%. Also, in assay [8], the “residual kinase activity p38a MAPK” value was 72%.

With `O=C(NCCCNc1nc(Nc2cccc(N3CCCC3=O)c2)ncc1C1CC1)c1cccs1` [Example 47, Thiophene-2-carboxylic acid (3-{5-cyclopropyl-2-[3-(2-oxo-pyrrolidin-1-yl)-phenylamino]-pyrimidin-4-ylamino}-propyl)-amide. Hydrochloride salt], the remaining activity at 1 µM turned out to be 69% in assay [1] (setting [16]); 61% in assay [2] (setting [17]); 105% in assay [3] (setting [18]); 94% in assay [5] (setting [19]); 9% in assay [6] (setting [20]); 90% in assay [7] (setting [21]). In assay [8] (setting [22]), the remaining activity at 1 µM worked out at 105%. The remaining activity at 10 µM in assay [1] (setting [16]) turned out to be 68%; in assay [2] (setting [17]) it was 36%; in assay [3] (setting [18]), 69%; in assay [5] (setting [19]) it was 74%; in assay [6] (setting [20]), 2%; in assay [7] (setting [21]), 66%. Moreover, the remaining activity at 10 µM in assay [8] (setting [22]) was 100%. The residual kinase activity amounted to 102% in assay [4] (1 μM compound) and 106% in assay [4] (10 μM compound).

On to `O=C(NCCCNc1nc(Nc2cccnc2)ncc1C1CC1)c1cccs1` [Example 50, Thiophene-2-carboxylic acid {3-[5-cyclopropyl-2-(pyridin-3-ylamino)-pyrimidin-4-ylamino]-propyl}-amide], for which the remaining activity at 1 µM in assay [1] (setting [16]) is 73%; in assay [2] (setting [17]) it was 72%; in assay [3] (setting [18]) it was 91%; in assay [5] (setting [19]) it was 82%; in assay [6] (setting [20]), 22%; in assay [7] (setting [21]) it was 106%. In assay [8] (setting [22]), the remaining activity at 1 µM was determined as 106%. The remaining activity at 10 µM turned out to be 47% in assay [1] (setting [16]); 40% in assay [2] (setting [17]); 50% in assay [3] (setting [18]); 29% in assay [5] (setting [19]); 4% in assay [6] (setting [20]); 62% in assay [7] (setting [21]). In addition, the remaining activity at 10 µM in assay [8] (setting [22]) turned out to be 90%. The residual kinase activity was found to be 107% in assay [4] (1 μM compound) and 82% in assay [4] (10 μM compound).
